Measured values reported in US20070202188A1, “Use of alkene carboxlic acid n alkylamides as flavouring agents” (priority 2003, published 2007).

How the values were obtained:
group of 6-8 testers = assay: Sensorial evaluation (tasting of sugar solution by a group of testers); type: in vivo; conditions: approx. 5 ml swallowed
Method: The substance to be tasted (see below) was dissolved in ethanol and the ethanolic solution was then diluted with 11% strength sugar solution (final concentration: c). For tasting, in each case approx. 5 ml of the sugar solution was swallowed. If the threshold value of the substance was known, a value just above the threshold value was chosen for the tasting. A group of 6-8 testers tasted the solutions.

oral cavity = conditions: in vivo; cited from earlier work
mouse = mouse oral; cited from earlier work
[1] = cited from earlier work
mouth = conditions: in vivo; cited from earlier work
[2] = c=10 ppm in 11% strength sugar solution

## 2E-decenoic acid N-(2-methylbutyl)amide [Example 2]
Group of 6-8 testers; [2]
  sensorial profile: slightly piquant, saliva-promoting, tingling, mild heat sensation

## 2E-tetradecenoic acid N-isobutylamide
Oral cavity
  sensorial effect described in the literature: no piquant taste was found

## 3E-nonenoic acid N-isobutylamide [Example 3]
Group of 6-8 testers; [2]
  sensorial profile: anaesthetizing, piquant taste builds up, impression of sweet palmond, slightly bitter

## CCCCC/C=C/C=C/C(=O)NCC(C)C [2E,4E-decadienoic acid N-isobutylamide]
Group of 6-8 testers; [2]
  sensorial profile: saliva-promoting, fatty, fruity, slightly tingling, slightly piquant
Oral cavity
  sensorial effect described in the literature: chiefly shows an anaesthetizing effect

## CCCCCC/C=C/CC(=O)NCC(C)C [Example 4, 3E-decenoic acid N-isobutylamide]
Group of 6-8 testers; [2]
  sensorial profile: tickling piquant taste, builds up slowly in the pharynx, slightly bitter

## COc1cc(CNC(=O)CCCC/C=C/C(C)C)ccc1O [capsaicin, N-(4-hydroxy-3-methoxybenzyl)-8-methyl-(6E)-nonenoic acid amid]
mouse
  LD50: 47 mg
[1]
  damage with frequent use and overdose: chronic gastritis and kidney and liver damage

## COc1cc(CNC(=O)CCCCCCC(C)C)ccc1O [dihydrocapsaicin]
Group of 6-8 testers; c=100 ppb in 11% strength sugar solution
  sensorial profile: action starts with a slight delay in the pharyngeal cavity, aggressive, burning piquant taste (chilli, slight evolution of heat)

## O=C(/C=C/C=C/c1ccc2c(c1)OCO2)N1CCCCC1 [piperine, 1-piperoylpiperidine]
mouth
  intrinsic taste: intensive intrinsic taste reminiscent of pepper
  relative piquant taste compared with capsaicin: approx. 1%
